Results on 7 compounds are retold here after patent US6391261B1, “Device for detecting analytes related to sample pH” (Lifepoint, Inc., priority 2000, dated 2002).

For this assay, the system named is cocaine antibody. Description: Cross-reactivity of the antibody used in the lateral flow competitive immunoassay for cocaine. It counts as binding. To be noted: dye labeled cocaine antibody of the saliva test cassette. From the text: Each rapid oral fluid test cassette 70 included in this test kit consists of a lateral flow assay strip, a color intensity chart 78, a pH test section 82, and a pH chart 80. The lateral flow assay strip consists of color dye labeled cocaine antibody and a nitrocellulose membrane coated with cocaine-Bovine Serum […] (“BSA”) conjugate. When a saliva sample is applied to the sample section of the cassette, the saliva sample will migrate by capillary movement to the dye-antibody zone and the cocaine-BSA membrane zone. If the sample tested is negative, the dye-antibody will bind with the membrane cocaine-BSA conjugate to form a red band on the membrane.
If the sample tested contains cocaine, cocaine in the sample will bind with the dye-antibody, and thus the binding between the dye-antibody and the membrane cocaine-BSA is prevented. The unbound dye-antibody will migrate away from the membrane to an absorbent pad. As a result, the intensity of the color band appearing on the membrane is inversely proportional to the concentration of cocaine in the saliva sample. A semi-quantitative result of cocaine concentration in the saliva sample is achieved by comparing the color band with a color intensity chart.

`CN1[C@H]2CC[C@@H]1[C@@H](C(=O)O)[C@@H](OC(=O)c1ccccc1)C2` [benzoylecgonine]: the “cross-reactivity of the assay antibody as compared with cocaine” value is “less than 5%”.
The entry for `COc1ccc2c3c1O[C@H]1[C@@H](O)C=C[C@H]4[C@@H](C2)N(C)CC[C@@]341` [codeine] is “No significant cross-reactivity”; for `CCO` [ethanol] it is “No significant cross-reactivity”.
With `CN[C@@H](C)Cc1ccccc1` [methamphetamine] the entry was “No significant cross-reactivity”; with `CN1CC[C@]23c4c5ccc(O)c4O[C@H]2[C@@H](O)C=C[C@H]3[C@H]1C5` [morphine], “No significant cross-reactivity”; with `c1ccc(C2(N3CCCCC3)CCCCC2)cc1` [phencyclidine], “No significant cross-reactivity”.
The entry for tetrahydrocannabinols is “No significant cross-reactivity”.
